{"source": "ChEMBL document CHEMBL1133690", "about": "“Discovery of a potent, orally bioavailable beta(3) adrenergic receptor agonist, (R)-N-[4-[2-[[2-hydroxy-2-(3-pyridinyl)ethyl]amino]ethyl]phenyl]-4-[4 -[4-(trifluoromethyl)phenyl]thiazol-2-yl]benzenesulfonamide” (J Med Chem, 2000)", "key": {"[1]": {"test": "Volume of distribution (Vdss) was measured in dog", "format": "ADME, organism-based, Canis lupus familiaris", "conditions": "in vivo, read-out: Vdss"}, "[2]": {"target": "T1, Beta-2 adrenergic receptor (Homo sapiens, UniProt P07550)", "test": "In vitro functional efficacy in stimulating increase in cAMP in chinese hamster ovary (CHO) cells expressing the cloned human beta-2 receptor.", "format": "cell-based"}, "[3]": {"target": "T2, Beta-1 adrenergic receptor (Homo sapiens, UniProt P08588)", "test": "In vitro functional efficacy in stimulating increase in cAMP in chinese hamster ovary (CHO) cells expressing the cloned human beta-1 receptor.", "format": "cell-based"}, "[4]": {"test": "Area under curve determined in dogs after intravenous administration of 3 mg/kg", "format": "ADME, organism-based, Canis lupus familiaris", "parameters": "dose 3 mg/kg, route intravenous", "conditions": "dog, in vivo"}, "[5]": {"target": "T1, Beta-2 adrenergic receptor", "test": "biochemical", "description": "Binding affinity was evaluated on chinese hamster ovary (CHO) cells expressing the cloned human beta-2 adrenergic receptor in the presence of [125I]- iodocyanopindolol."}, "[6]": {"target": "T3, Beta-3 adrenergic receptor (Homo sapiens, UniProt P13945)", "test": "Agonistic efficacy at human beta 3 adrenergic receptor as percent adenylyl cyclase activation relative to isoproterenol", "format": "functional"}, "[7]": {"test": "Oral bioavailability in dog", "format": "ADME, organism-based, Canis lupus familiaris", "conditions": "in vivo"}, "[8]": {"target": "T1, Beta-2 adrenergic receptor", "test": "Agonistic efficacy at human beta 2 adrenergic receptor was assessed from adenylyl cyclase activation given as % of the maximum stimulation with isoproterenol", "format": "functional"}, "[9]": {"test": "Plasma clearance was measured in dog", "format": "ADME, organism-based, Canis lupus familiaris", "conditions": "read-out: Clp"}, "[10]": {"test": "Area under curve determined in dogs after oral administration of 10 mg/kg", "format": "ADME, organism-based, Canis lupus familiaris", "parameters": "dose 10 mg/kg, route oral", "conditions": "dog, in vivo"}, "[11]": {"target": "T3, Beta-3 adrenergic receptor", "format": "cell-based, CHO"}, "[12]": {"target": "T2, Beta-1 adrenergic receptor", "test": "biochemical", "description": "Binding affinity was evaluated on chinese hamster ovary (CHO) cells expressing the cloned human beta-1 adrenergic receptor in the presence of [125I]- iodocyanopindolol."}, "[13]": {"target": "T3, Beta-3 adrenergic receptor", "test": "In vitro functional efficacy as increased cAMP in chinese hamster ovary (CHO) cells expressing human beta-3 receptor", "format": "cell-based"}, "[14]": {"test": "Half life was measured in dog", "format": "ADME, organism-based, Canis lupus familiaris", "conditions": "in vivo"}, "[15]": {"target": "T2, Beta-1 adrenergic receptor", "test": "Agonistic efficacy at human beta 1 adrenergic receptor was assessed from adenylyl cyclase activation given as % of the maximum stimulation with isoproterenol at 10 uM", "format": "functional"}, "[16]": {"test": "Volume distribution (Vdss) was measured in dog", "format": "ADME, organism-based, Canis lupus familiaris", "conditions": "in vivo, read-out: Vdss"}, "[17]": {"test": "Oral bioavailability in rat (dose 10 mg/kg p.o. and 3 mg/kg i.v.)", "format": "ADME, organism-based", "conditions": "in vivo"}, "Monkey": {"test_system": "Monkey", "test": "Effective dose for hyperglycerolemia producing increase in serum glycerol accompained by tachycardia in anesthetized rhesus monkeys", "format": "functional", "conditions": "Cercopithecidae, in Macaca mulatta"}}}
{"smiles": "O=S(=O)(Nc1ccc(CCNC[C@H](O)c2cccnc2)cc1)c1ccc(-c2nc(-c3ccc(F)c(F)c3)cs2)cc1", "values": [{"measurement": "Vd", "setting": "[1]", "value": 19, "unit": "L/kg"}, {"measurement": "EC50", "setting": "[2]", "value": 1.8, "unit": "µM"}, {"measurement": "EC50", "setting": "[3]", "value": 2.6, "unit": "µM"}, {"measurement": "AUC", "setting": "[4]", "value": 1720, "unit": "ng·h/mL"}, {"measurement": "IC50", "setting": "[5]", "value": 1.7, "unit": "µM"}, {"measurement": "ACT", "setting": "[6]", "value": 92, "unit": "%"}, {"measurement": "bioavailability", "setting": "[7]", "value": 36, "unit": "%"}, {"measurement": "ACT", "setting": "[8]", "value": 12, "unit": "%"}, {"measurement": "clearance", "setting": "[9]", "value": 29.3, "unit": "mL/min/kg"}, {"measurement": "AUC", "setting": "[10]", "value": 2070, "unit": "ng·h/mL"}, {"measurement": "IC50", "setting": "[11]", "value": 0.02, "unit": "µM"}, {"measurement": "IC50", "setting": "[12]", "value": 1.7, "unit": "µM"}, {"measurement": "EC50", "setting": "[13]", "value": 0.0071, "unit": "µM"}, {"measurement": "half-life", "setting": "[14]", "value": 7.5, "unit": "h"}]}
{"smiles": "O=S(=O)(Nc1ccc(CCNC[C@H](O)c2cccnc2)cc1)c1ccc(-c2nc(-c3cccc(F)c3F)cs2)cc1", "values": [{"measurement": "ACT", "setting": "[15]", "value": 6, "unit": "%"}, {"measurement": "IC50", "setting": "[5]", "value": 0.76, "unit": "µM"}, {"measurement": "ACT", "setting": "[6]", "value": 99, "unit": "%"}, {"measurement": "IC50", "setting": "[12]", "value": 2.6, "unit": "µM"}, {"measurement": "EC50", "setting": "[13]", "value": 0.0076, "unit": "µM"}]}
{"smiles": "O=S(=O)(Nc1ccc(CCNC[C@H](O)c2cccnc2)cc1)c1ccc(-c2nc(-c3ccc(F)cc3F)cs2)cc1", "values": [{"measurement": "ACT", "setting": "[15]", "value": 7, "unit": "%"}, {"measurement": "IC50", "setting": "[5]", "value": 2.6, "unit": "µM"}, {"measurement": "ACT", "setting": "[6]", "value": 87, "unit": "%"}, {"measurement": "IC50", "setting": "[12]", "value": 2.5, "unit": "µM"}, {"measurement": "EC50", "setting": "[13]", "value": 0.019, "unit": "µM"}]}
{"smiles": "O=S(=O)(Nc1ccc(CCNC[C@H](O)c2cccnc2)cc1)c1ccc(-c2nc(-c3cc(F)c(F)c(F)c3)cs2)cc1", "values": [{"measurement": "Vd", "setting": "[16]", "value": 14.1, "unit": "L/kg"}, {"measurement": "AUC", "setting": "[4]", "value": 2470, "unit": "ng·h/mL"}, {"measurement": "ACT", "setting": "[15]", "value": 20, "unit": "%"}, {"measurement": "IC50", "setting": "[5]", "value": 5, "unit": "µM"}, {"measurement": "ACT", "setting": "[6]", "value": 100, "unit": "%"}, {"measurement": "bioavailability", "setting": "[7]", "value": 27, "unit": "%"}, {"measurement": "clearance", "setting": "[9]", "value": 20.5, "unit": "mL/min/kg"}, {"measurement": "AUC", "setting": "[10]", "value": 2230, "unit": "ng·h/mL"}, {"measurement": "IC50", "setting": "[12]", "value": 2, "unit": "µM"}, {"measurement": "EC50", "setting": "[13]", "value": 0.0063, "unit": "µM"}, {"measurement": "half-life", "setting": "[14]", "value": 8, "unit": "h"}]}
{"smiles": "O=S(=O)(Nc1ccc(CCNC[C@H](O)c2cccnc2)cc1)c1ccc(-c2nc(-c3cccc(C(F)(F)F)c3)cs2)cc1", "values": [{"measurement": "ACT", "setting": "[15]", "value": 17, "unit": "%"}, {"measurement": "IC50", "setting": "[5]", "value": 0.98, "unit": "µM"}, {"measurement": "ACT", "setting": "[6]", "value": 100, "unit": "%"}, {"measurement": "IC50", "setting": "[12]", "value": 1.8, "unit": "µM"}, {"measurement": "EC50", "setting": "[13]", "value": 0.0069, "unit": "µM"}]}
{"smiles": "O=S(=O)(Nc1ccc(CCNC[C@H](O)c2cccnc2)cc1)c1ccc(-c2nc(-c3ccc(OC(F)(F)F)cc3)cs2)cc1", "values": [{"measurement": "Vd", "setting": "[16]", "value": 12.8, "unit": "L/kg"}, {"measurement": "bioavailability", "setting": "[17]", "value": 7, "unit": "%"}, {"measurement": "EC50", "setting": "[2]", "value": 1.4, "unit": "µM"}, {"measurement": "EC50", "setting": "[3]", "value": 2.7, "unit": "µM"}, {"measurement": "AUC", "setting": "[4]", "value": 3530, "unit": "ng·h/mL"}, {"measurement": "ACT", "setting": "[15]", "value": 24, "unit": "%"}, {"measurement": "IC50", "setting": "[5]", "value": 1.2, "unit": "µM"}, {"measurement": "ACT", "setting": "[6]", "value": 93, "unit": "%"}, {"measurement": "bioavailability", "setting": "[7]", "value": 53, "unit": "%"}, {"measurement": "ACT", "setting": "[8]", "value": 18, "unit": "%"}, {"measurement": "clearance", "setting": "[9]", "value": 14.3, "unit": "mL/min/kg"}, {"measurement": "AUC", "setting": "[10]", "value": 6280, "unit": "ng·h/mL"}, {"measurement": "IC50", "setting": "[11]", "value": 0.03, "unit": "µM"}, {"measurement": "IC50", "setting": "[12]", "value": 8.4, "unit": "µM"}, {"measurement": "ED50", "setting": "Monkey", "value": 0.14, "unit": "mg/kg"}, {"measurement": "EC50", "setting": "[13]", "value": 0.0043, "unit": "µM"}, {"measurement": "half-life", "setting": "[14]", "value": 10.3, "unit": "h"}]}
{"smiles": "O=S(=O)(Nc1ccc(CCNC[C@H](O)c2cccnc2)cc1)c1ccc(-c2nc(-c3ccccc3C(F)(F)F)cs2)cc1", "values": [{"measurement": "IC50", "setting": "[5]", "value": 1.8, "unit": "µM"}, {"measurement": "ACT", "setting": "[6]", "value": 82, "unit": "%"}, {"measurement": "IC50", "setting": "[12]", "value": 1.9, "unit": "µM"}, {"measurement": "EC50", "setting": "[13]", "value": 0.053, "unit": "µM"}]}
{"smiles": "O=S(=O)(Nc1ccc(CCNC[C@H](O)c2cccnc2)cc1)c1ccc(-c2nc(-c3ccc(C(F)(F)F)cc3)cs2)cc1", "values": [{"measurement": "Vd", "setting": "[16]", "value": 31.3, "unit": "L/kg"}, {"measurement": "bioavailability", "setting": "[17]", "value": 17, "unit": "%"}, {"measurement": "EC50", "setting": "[2]", "value": 2.4, "unit": "µM"}, {"measurement": "EC50", "setting": "[3]", "value": 4.8, "unit": "µM"}, {"measurement": "AUC", "setting": "[4]", "value": 1930, "unit": "ng·h/mL"}, {"measurement": "ACT", "setting": "[15]", "value": 24, "unit": "%"}, {"measurement": "ACT", "setting": "[6]", "value": 94, "unit": "%"}, {"measurement": "bioavailability", "setting": "[7]", "value": 38, "unit": "%"}, {"measurement": "clearance", "setting": "[9]", "value": 26.8, "unit": "mL/min/kg"}, {"measurement": "AUC", "setting": "[10]", "value": 2270, "unit": "ng·h/mL"}, {"measurement": "IC50", "setting": "[11]", "value": 0.046, "unit": "µM"}, {"measurement": "ED50", "setting": "Monkey", "value": 0.26, "unit": "mg/kg"}, {"measurement": "half-life", "setting": "[14]", "value": 13.5, "unit": "h"}]}
